Laboratory results as given in US20230212180A1, “SUBSTITUTED PYRAZINE COMPOUND, PHARMACEUTICAL COMPOSITION COMPRISING SAME, AND USE THEREOF” (Sichuan Kelun-Biotech Biopharmaceutical Co., Ltd., priority 2020, published 2023).

Key:
[1] = target: T1, CYP1A2 (Homo sapiens, UniProt P05177); test: Biochemical assay for CYP enzyme inhibition, P450-Glo CYP1A2 Screening System; assay type: in vitro ADME; details: estimated from percentage inhibition; read-out: IC50 (μM) CYP1A2
T1 construct: purchased Promega
T1 sequence (P05177 1-516): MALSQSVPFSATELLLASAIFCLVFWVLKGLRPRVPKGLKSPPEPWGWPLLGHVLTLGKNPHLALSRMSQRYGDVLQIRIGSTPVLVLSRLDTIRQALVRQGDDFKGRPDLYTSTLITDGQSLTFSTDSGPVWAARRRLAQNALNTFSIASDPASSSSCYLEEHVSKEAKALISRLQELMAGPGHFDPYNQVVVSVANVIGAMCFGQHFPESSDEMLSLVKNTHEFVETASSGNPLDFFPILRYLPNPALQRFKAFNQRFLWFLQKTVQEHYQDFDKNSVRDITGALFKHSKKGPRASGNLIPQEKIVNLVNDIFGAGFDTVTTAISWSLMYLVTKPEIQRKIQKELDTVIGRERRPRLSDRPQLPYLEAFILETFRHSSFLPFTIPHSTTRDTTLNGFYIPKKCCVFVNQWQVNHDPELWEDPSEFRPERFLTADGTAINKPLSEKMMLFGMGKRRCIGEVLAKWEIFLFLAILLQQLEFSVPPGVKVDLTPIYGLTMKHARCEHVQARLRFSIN
Experimental: (§1) Test Example 5: Biochemical Assay for CYP Enzyme (Cytochrome P450) Inhibition
P450-Glo™ CYP1A2 Screening System, (Promega);
(§2) BMG PHERAstar FS Luminescent.
(§3) The experiments were carried out separately according to the instructions of the kits. The steps were as follows:
3.1. Inhibition Against CYP1A2:
(§4) Test group: The test compounds at different concentrations were added into a microplate, and Luciferin-ME (100 μM), K3PO4 (100 mM), and CYP1A2 (0.01 μmol/μL) were added into each well, and pre-incubated at room temperature for 10 min. Thereafter, an NADPH regeneration system was added. The mixture was reacted at room temperature for 30 min. Finally, an equal volume of detection buffer was added and incubated at room temperature for 20 min, followed by chemiluminescence detection.
(§5) Negative control group: The experimental method for the negative control group was the same as that for the test group, except that the test compound was not added.
Blank control group: The experimental method for the blank control group was the same as that for the test group, except that the test compound was not added and that CYP1A2 was replaced with CYP1A2 Membrance (0.01 μmol/μL).
(§6) Percentage inhibition=(1−(the chemiluminescent signal value of the test compound group at a certain test concentration−the chemiluminescent signal value of the blank control group)/(the chemiluminescent signal value of the negative control group−the chemiluminescent signal value of the blank control group))×100%.
(§7) When the percentage inhibition was between 30% and 80%, a single value or a value range of the half maximal inhibitory concentration (IC50) of the compound against the CYP enzyme was estimated based on the following equation: IC50=X×(1−percentage inhibition)/percentage inhibition, wherein X was the test concentration of the compound.

[2] = Pharmacokinetic (PK) studies in beagle dog; assay type: in vivo; details: dog, male beagle dogs, plasma
Experimental: Test Example 8: Pharmacokinetic (PK) Studies in Beagle Dog
(§8) The compound of Example 12, Control Compound 1, Control Compound 2, and TNO-155 were administered to male beagle dogs by intravenous injection (IV) and gavage (PO) respectively to estimate the pharmacokinetic properties. Dosing amounts for IV and PO routes were 0.5 mg/kg and 2.5 mg/kg. The solvent for IV route was 5% DMSO+5% Solutol+90% Saline, and the solvent for PO route was 0.5% MC (sodium methylcellulose). Blood was collected at various time points after IV and PO administration. The blood was anticoagulated using EDTA.K2, and centrifuged to obtain plasma samples. The plasma samples were preserved at −80° C.
The plasma samples were subjected to protein precipitation and then to the LC-MS/MS analysis. WinNonlin 6.3 software was used to calculate the pharmacokinetic parameters by non-compartmental model, and the results were listed in Table 8 below.

[3] = target: T2, CYP2D6 (Homo sapiens, UniProt P10635); test: Biochemical assay for CYP enzyme inhibition, P450-Glo CYP2D6 Screening System; assay type: in vitro ADME; details: estimated from percentage inhibition; read-out: IC50 (μM) CYP2D6
T2 construct: purchased Promega
Experimental: as §1
P450-Glo™ CYP2D6 Screening System, (Promega);
as §2, §3
3.2. Inhibition Against CYP2D6:
as §4, with “and Luciferin-ME EGE (3 μM), K3PO4” for “and Luciferin-ME (100 μM), K3PO4”, “mM), and CYP2D6 (5 nM) were added” for “mM), and CYP1A2 (0.01 μmol/μL) were added”, “reacted at 37° C. for 30” for “reacted at room temperature for 30”
as §5
Blank control group: The experimental method for the blank control group was the same as that for the test group, except that the test compound was not added and that CYP2D6 was replaced with CYP2D6 Membrance (5 nM).
as §6, §7

[4] = target: T3, CYP3A4 (Homo sapiens, UniProt P08684); test: Biochemical assay for CYP enzyme inhibition, P450-Glo CYP3A4 Screening System; assay type: in vitro ADME; details: estimated from percentage inhibition; read-out: IC50 (μM) CYP3A4
T3 construct: purchased Promega
Experimental: as §1
P450-Glo™ CYP3A4 Screening System, (Promega).
as §2, §3
3.3. Inhibition Against CYP3A4:
as §4, with “Luciferin-IPA ([…]),” for “Luciferin-ME (100 μM),”, “CYP3A4 (2 nM)” for “CYP1A2 (0.01 μmol/μL)”
as §5
Blank control group: The experimental method for the blank control group was the same as that for the test group, except that the test compound was not added and that CYP3A4 was replaced with CYP3A4 Membrance (2 nM).
as §6, §7

[5] = Pharmacokinetic (PK) studies in Balb/c mouse; assay type: in vivo; details: female, Balb/c, mouse, in vivo
Experimental: Test Example 7: Pharmacokinetic (PK) Studies in Balb/c Mouse
as §8, with “to female Balb/c mice” for “to male beagle dogs”, “were 1” for “were 0.5”, “and 10 mg/kg, respectively.” for “and 2.5 mg/kg.”, “blood from the test groups of the compound of Example 12, Control Compound 1, and Control Compound 2” for “blood”, “using EDTA.K2 and preserved at −80° C. The blood from the test groups of TNO-155 was anticoagulated using EDTA.K2” for “using EDTA.K2,”, “plasma samples, and the” for “plasma samples. The”
The blood or plasma samples were subjected to protein precipitation and then to the LC-MS/MS analysis. WinNonlin 6.3 software was used to calculate the pharmacokinetic parameters by non-compartmental model, and the results were listed in Table 7 below.

[6] = Pharmacokinetic (PK) studies in SD rat; assay type: in vivo; details: rat, male SD rats, plasma
Experimental: Test Example 6: Pharmacokinetic (PK) Studies in SD Rat
as §8, with “Example 12 and” for “Example 12,”, “Compound 2” for “Compound 1, Control Compound 2, and TNO-155”, “male SD rats” for “male beagle dogs”, “were 1” for “were 0.5”, “and 5 mg/kg, respectively.” for “and 2.5 mg/kg.”, “DMSO+5% Solutol (polyoxyl 15-hydroxystearate)+90% Saline (physiological saline),” for “DMSO+5% Solutol+90% Saline,”
The plasma samples were subjected to protein precipitation and then to the LC-MS/MS analysis. WinNonlin 6.3 software was used to calculate the pharmacokinetic parameters by non-compartmental model, and the results were listed in Table 6 below.

T3 sequence (P08684 whole entry): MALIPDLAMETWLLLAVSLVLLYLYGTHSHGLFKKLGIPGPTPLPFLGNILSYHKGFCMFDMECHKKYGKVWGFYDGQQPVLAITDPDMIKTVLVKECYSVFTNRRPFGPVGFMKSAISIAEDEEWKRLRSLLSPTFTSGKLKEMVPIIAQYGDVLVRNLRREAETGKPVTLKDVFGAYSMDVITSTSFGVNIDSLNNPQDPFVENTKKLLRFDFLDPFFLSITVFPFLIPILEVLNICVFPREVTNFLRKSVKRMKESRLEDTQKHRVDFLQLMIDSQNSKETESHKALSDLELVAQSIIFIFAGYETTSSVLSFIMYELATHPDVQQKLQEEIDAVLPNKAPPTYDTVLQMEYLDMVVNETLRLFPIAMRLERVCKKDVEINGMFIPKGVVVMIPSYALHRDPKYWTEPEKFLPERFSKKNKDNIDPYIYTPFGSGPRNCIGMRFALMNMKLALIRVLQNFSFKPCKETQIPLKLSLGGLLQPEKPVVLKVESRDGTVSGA
T2 sequence (P10635 whole entry): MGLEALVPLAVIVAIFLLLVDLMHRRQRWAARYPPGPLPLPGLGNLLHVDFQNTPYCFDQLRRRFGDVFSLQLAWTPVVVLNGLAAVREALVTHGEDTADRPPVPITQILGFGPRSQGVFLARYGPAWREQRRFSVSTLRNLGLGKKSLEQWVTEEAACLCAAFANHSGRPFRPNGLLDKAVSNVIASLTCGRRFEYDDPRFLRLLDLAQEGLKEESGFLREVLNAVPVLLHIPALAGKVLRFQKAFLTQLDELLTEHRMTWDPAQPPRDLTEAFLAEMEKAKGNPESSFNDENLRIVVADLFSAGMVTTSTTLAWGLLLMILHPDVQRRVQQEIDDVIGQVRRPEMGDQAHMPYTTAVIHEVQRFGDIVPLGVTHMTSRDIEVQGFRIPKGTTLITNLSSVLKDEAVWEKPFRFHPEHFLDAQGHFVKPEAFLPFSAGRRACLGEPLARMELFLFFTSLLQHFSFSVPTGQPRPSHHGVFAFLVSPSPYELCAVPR

| Structure (SMILES) | IC50 [1] | AUC(0-t) ([2]; IV, 0.5 mg/kg) | clearance ([2]; IV, 0.5 mg/kg) | AUC(0-t) ([2]; PO, 2.5 mg/kg) | half-life ([2]; PO, 2.5 mg/kg) | IC50 [3] | IC50 [4] | AUC(0-t) ([5]; iv, 1 mg/kg) | clearance ([5]; iv, 1 mg/kg) | AUC(0-t) ([5]; po, 10 mg/kg) | half-life ([5]; po, 10 mg/kg) | AUC(0-t) ([6]; IV, 1 mg/kg) | Cmax ([6]; IV, 1 mg/kg) | clearance ([6]; IV, 1 mg/kg) | AUC(0-t) ([6]; PO, 5 mg/kg) | Cmax ([6]; PO, 5 mg/kg) |
| --- | --- | --- | --- | --- | --- | --- | --- | --- | --- | --- | --- | --- | --- | --- | --- | --- |
| C[C@@H]1OCC2(CCN(c3ncc(Sc4ccnc(N5CC(O)C5)c4Cl)nc3CO)CC2)[C@@H]1N [Control Compound 1] | > 10 µM | 1220 ng·h/mL | 7.08 mL/min/kg | 3910 ng·h/mL | 10.5 h | 6.96 µM | > 10 µM | 2200 ng·h/mL | 7.21 mL/min/kg | 8690 ng·h/mL | 4.61 h |  |  |  |  |  |
| Cc1nc(N2CCC3(CC2)CO[C@@H](C)[C@H]3N)c(CO)nc1Sc1ccnc(N)c1Cl [Control Compound 2] |  | 614 ng·h/mL | 13.2 mL/min/kg | 2550 ng·h/mL | 12.3 h |  |  | 576 ng·h/mL | 23.2 mL/min/kg | 3870 ng·h/mL | 5.08 h | 696 ng·h/mL | 215 ng/mL | 24.6 mL/min/kg | 2760 ng·h/mL | 363 ng/mL |
